Laboratory results: PubChem BioAssay (NCI)
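1) Cells in 96-well plates. 2) Compound, 48 h, 5 concentrations. 3) Linear interpolation between surrounding doses. 4) Unreached endpoint = highest concentration. At the GI50, growth is halved. TGI is the concentration that stops growth completely.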

Columns and labels:
Experiment in all cases: inhibition of tumour cell growth, NCI panel, 48 h
LOX IMVI melanoma = tested on: LOX IMVI melanoma
SR leukemia = tested on: SR leukemia
HL-60(TB) leukemia = tested on: HL-60(TB) leukemia
PC-3 prostate = tested on: PC-3 prostate
RXF 393 renal = tested on: RXF 393 renal
SF-268 CNS = tested on: SF-268 CNS
CAKI-1 renal = tested on: CAKI-1 renal
SF-295 CNS = tested on: SF-295 CNS
HCC-2998 colon = tested on: HCC-2998 colon
NCI-H460 lung = tested on: NCI-H460 lung

Row | Structure (SMILES) | TGI (LOX IMVI melanoma) [µM] | TGI (SR leukemia) [µM] | TGI (HL-60(TB) leukemia) [µM] | TGI (PC-3 prostate) [µM] | TGI (RXF 393 renal) [µM] | TGI (SF-268 CNS) [µM] | TGI (CAKI-1 renal) [µM] | GI50 (HL-60(TB) leukemia) [µM] | GI50 (PC-3 prostate) [µM] | GI50 (SF-295 CNS) [µM] | TGI (SF-295 CNS) [µM] | GI50 (RXF 393 renal) [µM] | GI50 (HCC-2998 colon) [µM] | TGI (HCC-2998 colon) [µM] | TGI (NCI-H460 lung) [µM]
1 | O=C(c1ccco1)N(C(=S)OCc1ccccn1)c1ccccc1 | > 100 | 8.58 | > 100 | > 100 | > 100 | > 100 | > 100 | – | – | – | – | – | – | – | –
2 | CC[N+](CC)=c1ccc2nc3c(cc(N)c4ccccc43)oc-2c1 | – | – | 0.326 | 6.94 | 0.319 | – | – | 0.134 | 0.567 | 0.111 | 0.288 | 0.173 | 0.257 | 0.661 | –
3 | CCOC(=O)C(O)(NC(C)=O)C(F)(F)F (configuration not stated) | > 100 | > 100 | > 100 | > 100 | > 100 | > 100 | > 100 | – | – | – | > 100 | – | – | > 100 | –
4 | COc1cc(C2C3=C(COC3=O)OC(C)(C)Oc3cc4c(cc32)OCO4)cc(OC)c1OC (configuration not stated) | > 100 | – | 1.26 | > 100 | – | > 31.6 | > 100 | – | – | – | 0.532 | – | – | > 100 | > 100
5 | N#Cc1c2c(c(N3CCOCC3)n3c1nc1ccccc13)CCCC2 | 41.1 | – | 35.5 | 50.3 | – | > 100 | 37.9 | – | – | – | 34.8 | – | – | 40.9 | 56.4
6 | CCCCN(c1ccccc1)c1ncnc2c1cnn2C | > 100 | – | 47.6 | > 100 | 89.4 | > 100 | > 100 | – | – | – | > 100 | – | – | > 100 | > 100
7 | COS(=O)c1cc(Cl)cc(Cl)c1O (configuration not stated) | > 100 | > 100 | > 100 | – | > 100 | > 100 | – | – | – | – | – | – | – | > 100 | > 100
8 | COC(=O)[C@@H]1N2C(=S)N(c3ccccc3)C(=O)[C@H]2SC1(C)C | – | > 100 | – | > 100 | > 100 | > 100 | > 100 | – | – | – | > 100 | – | – | > 100 | > 100
9 | Cc1[nH]c(-c2ccccc2)c(-c2ccc(Cl)cc2)c1C(=O)ONC(=O)c1ccccc1 | 2.87 | – | 3.29 | 17.2 | 6.69 | 6.9 | 6.88 | – | – | – | 4.74 | – | – | 16.2 | 5.11
10 | C=C1C[C@]23C[C@@]1(O)CC[C@H]2[C@@]12C=C[C@H](O)[C@@](C)(C(=O)O1)[C@H]2[C@@H]3C(=O)O | > 100 | > 100 | > 100 | – | > 100 | > 100 | > 100 | – | – | – | > 100 | – | – | > 100 | > 100
11 | O=C(O)c1ccccc1/C=N\NC1=NCCCCN1 | > 100 | > 100 | – | > 100 | – | > 100 | > 100 | – | – | – | > 100 | – | – | > 100 | > 100
